# Assays:
# Experiment in all cases: Histone peptide microarray
# Type in all cases: binding, human
# Details in all cases: sheet "Array Heatmap"
# KDM5B (1) = tested on: KDM5B (1)
# Procedure, shortened: (§1)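 Binding of recombinant GST-fused PHD readers (0.5 μM) is detected on an array of 293 histone peptides, modified singly or in combination. An optimized array protocol is followed, and each intensity is the average of quadruplicate measurements with standard deviation.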
# CHD5 (PCC) = tested on: CHD5 (PCC)
# Procedure, shortened: as §1
# BAZ2B = tested on: BAZ2B
# Procedure, shortened: as §1
# PHRF1 (RP) = tested on: PHRF1 (RP)
# Procedure, shortened: as §1
# PHF2 = tested on: PHF2
# Procedure, shortened: as §1
# KDM7A = tested on: KDM7A
# Procedure, shortened: as §1
# TAF3 = tested on: TAF3
# Procedure, shortened: as §1
# ING5 = tested on: ING5
# Procedure, shortened: as §1
# RAG2 = tested on: RAG2
# Procedure, shortened: as §1
# SP140L = tested on: SP140L
# Procedure, shortened: as §1
# ING3 = tested on: ING3
# Procedure, shortened: as §1
# BPTF (PB) = tested on: BPTF (PB)
# Procedure, shortened: as §1
# AIRE (PP) = tested on: AIRE (PP)
# Procedure, shortened: as §1
# KDM5A (1) = tested on: KDM5A (1)
# Procedure, shortened: as §1
# KDM5A (3) = tested on: KDM5A (3)
# Procedure, shortened: as §1
# ING4 = tested on: ING4
# Procedure, shortened: as §1
# CHD5 (PPCC) = tested on: CHD5 (PPCC)
# Procedure, shortened: as §1
# ING1 = tested on: ING1
# Procedure, shortened: as §1
# DPF2 (PPC2W2) = tested on: DPF2 (PPC2W2)
# Procedure, shortened: as §1
# ING2 = tested on: ING2
# Procedure, shortened: as §1
# PHF23 = tested on: PHF23
# Procedure, shortened: as §1
# MLL5 = tested on: MLL5
# Procedure, shortened: as §1
# PHF21A = tested on: PHF21A
# Procedure, shortened: as §1
# KDM5B (3) = tested on: KDM5B (3)
# Procedure, shortened: as §1
# MORC3 (CW) = tested on: MORC3 (CW)
# Procedure, shortened: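 Readout is array binding signal, reported as the mean and standard deviation over four replicates. Each purified GST-fused PHD domain was incubated at 0.5 μM with a library of 293 modified histone peptides.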
# TRIM66 (PB) = tested on: TRIM66 (PB)
# Procedure, shortened: as §1
# PHF13 = tested on: PHF13
# Procedure, shortened: as §1
# CHD4 (PPCC) = tested on: CHD4 (PPCC)
# Procedure, shortened: as §1
# PHF8 = tested on: PHF8
# Procedure, shortened: as §1
# KDM4C (TTP) = tested on: KDM4C (TTP)
# Procedure, shortened: as §1
# DIDO1 = tested on: DIDO1
# Procedure, shortened: as §1
# [1] = GST-tagged reader, histone peptide array, total n = 4
substance,measurement,setting,value
"H3 (74-84): H3 74-84 (IAQDFKTDLRF; UniProt P68431 75-85, looked up, fragment)","Array Heatmap signal, KDM5B (1)",KDM5B (1); [1],0.6254
same,"Array Heatmap signal, CHD5 (PCC)",CHD5 (PCC); [1],0.8536
same,"Array Heatmap signal, BAZ2B",BAZ2B; [1],0.5314
same,"Array Heatmap signal, PHRF1 (RP)",PHRF1 (RP); [1],0.4358
same,"Array Heatmap signal, PHF2",PHF2; [1],0.4839
same,"Array Heatmap signal, KDM7A",KDM7A; [1],0.4511
same,"Array Heatmap signal, TAF3",TAF3; [1],0.2746
same,"Array Heatmap signal, ING5",ING5; [1],0.3977
same,"Array Heatmap signal, RAG2",RAG2; [1],0.2597
same,"Array Heatmap signal, SP140L",SP140L; [1],0.3639
same,"Array Heatmap signal, ING3",ING3; [1],0.4892
same,"Array Heatmap signal, BPTF (PB)",BPTF (PB); [1],0.3631
same,"Array Heatmap signal, AIRE (PP)",AIRE (PP); [1],0.5836
same,"Array Heatmap signal, KDM5A (1)",KDM5A (1); [1],0.5057
same,"Array Heatmap signal, KDM5A (3)",KDM5A (3); [1],0.4265
same,"Array Heatmap signal, ING4",ING4; [1],0.5059
same,"Array Heatmap signal, CHD5 (PPCC)",CHD5 (PPCC); [1],0.6043
same,"Array Heatmap signal, ING1",ING1; [1],0.527
same,"Array Heatmap signal, DPF2 (PPC2W2)",DPF2 (PPC2W2); [1],0.6874
same,"Array Heatmap signal, ING2",ING2; [1],0.5988
same,"Array Heatmap signal, PHF23",PHF23; [1],0.5211
same,"Array Heatmap signal, MLL5",MLL5; [1],0.5674
same,"Array Heatmap signal, PHF21A",PHF21A; [1],0.5055
same,"Array Heatmap signal, KDM5B (3)",KDM5B (3); [1],0.5142
same,"Array Heatmap signal, MORC3 (CW)",MORC3 (CW); [1],0.3965
same,"Array Heatmap signal, TRIM66 (PB)",TRIM66 (PB); [1],0.6388
same,"Array Heatmap signal, PHF13",PHF13; [1],0.6585
same,"Array Heatmap signal, CHD4 (PPCC)",CHD4 (PPCC); [1],0.6103
same,"Array Heatmap signal, PHF8",PHF8; [1],0.3649
same,"Array Heatmap signal, KDM4C (TTP)",KDM4C (TTP); [1],0.5485
same,"Array Heatmap signal, DIDO1",DIDO1; [1],0.6796
H3.3 15-34: H3.3 15-34,"Array Heatmap signal, KDM5B (1)","KDM5B (1); GST-tagged KDM5B (1), arrays performed twice, total replicate number n = 4",0.7186
same,"Array Heatmap signal, CHD5 (PCC)","CHD5 (PCC); GST-tagged CHD5 (PCC), arrays performed twice, total replicate number n = 4",0.807
same,"Array Heatmap signal, BAZ2B","BAZ2B; GST-tagged BAZ2B, arrays performed twice, total replicate number n = 4",0.5105
same,"Array Heatmap signal, PHRF1 (RP)","PHRF1 (RP); GST-tagged PHRF1 (RP), arrays performed twice, total replicate number n = 4",0.4107
same,"Array Heatmap signal, PHF2","PHF2; GST-tagged PHF2, arrays performed twice, total replicate number n = 4",0.4208
same,"Array Heatmap signal, KDM7A","KDM7A; GST-tagged KDM7A, arrays performed twice, total replicate number n = 4",0.5038
same,"Array Heatmap signal, TAF3","TAF3; GST-tagged TAF3, arrays performed twice, total replicate number n = 4",0.298
same,"Array Heatmap signal, ING5","ING5; GST-tagged ING5, arrays performed twice, total replicate number n = 4",0.3926
same,"Array Heatmap signal, RAG2","RAG2; GST-tagged RAG2, arrays performed twice, total replicate number n = 4",0.2498
same,"Array Heatmap signal, SP140L","SP140L; GST-tagged SP140L, arrays performed twice, total replicate number n = 4",0.3703
same,"Array Heatmap signal, ING3","ING3; GST-tagged ING3, arrays performed twice, total replicate number n = 4",0.4684
same,"Array Heatmap signal, BPTF (PB)","BPTF (PB); GST-tagged BPTF (PB), arrays performed twice, total replicate number n = 4",0.3589
same,"Array Heatmap signal, AIRE (PP)","AIRE (PP); GST-tagged AIRE (PP), arrays performed twice, total replicate number n = 4",0.5768
same,"Array Heatmap signal, KDM5A (1)","KDM5A (1); GST-tagged KDM5A (1), arrays performed twice, total replicate number n = 4",0.5272
same,"Array Heatmap signal, KDM5A (3)","KDM5A (3); GST-tagged KDM5A (3), arrays performed twice, total replicate number n = 4",0.4324
same,"Array Heatmap signal, ING4","ING4; GST-tagged ING4, arrays performed twice, total replicate number n = 4",0.4948
same,"Array Heatmap signal, CHD5 (PPCC)","CHD5 (PPCC); GST-tagged CHD5 (PPCC), arrays performed twice, total replicate number n = 4",0.5888
same,"Array Heatmap signal, ING1","ING1; GST-tagged ING1, arrays performed twice, total replicate number n = 4",0.5055
same,"Array Heatmap signal, DPF2 (PPC2W2)","DPF2 (PPC2W2); GST-tagged DPF2 (PPC2W2), arrays performed twice, total replicate number n = 4",0.6732
same,"Array Heatmap signal, ING2","ING2; GST-tagged ING2, arrays performed twice, total replicate number n = 4",0.6004
same,"Array Heatmap signal, PHF23","PHF23; GST-tagged PHF23, arrays performed twice, total replicate number n = 4",0.5121
same,"Array Heatmap signal, MLL5","MLL5; GST-tagged MLL5, arrays performed twice, total replicate number n = 4",0.5484
same,"Array Heatmap signal, PHF21A","PHF21A; GST-tagged PHF21A, arrays performed twice, total replicate number n = 4",0.4988
same,"Array Heatmap signal, KDM5B (3)","KDM5B (3); GST-tagged KDM5B (3), arrays performed twice, total replicate number n = 4",0.5078
same,"Array Heatmap signal, MORC3 (CW)","MORC3 (CW); GST-tagged MORC3 (CW), arrays performed twice, total replicate number n = 4",0.367
same,"Array Heatmap signal, TRIM66 (PB)","TRIM66 (PB); GST-tagged TRIM66 (PB), arrays performed twice, total replicate number n = 4",0.563
same,"Array Heatmap signal, PHF13","PHF13; GST-tagged PHF13, arrays performed twice, total replicate number n = 4",0.6359
same,"Array Heatmap signal, CHD4 (PPCC)","CHD4 (PPCC); GST-tagged CHD4 (PPCC), arrays performed twice, total replicate number n = 4",0.5508
same,"Array Heatmap signal, PHF8","PHF8; GST-tagged PHF8, arrays performed twice, total replicate number n = 4",0.386
same,"Array Heatmap signal, KDM4C (TTP)","KDM4C (TTP); GST-tagged KDM4C (TTP), arrays performed twice, total replicate number n = 4",0.5726
same,"Array Heatmap signal, DIDO1","DIDO1; GST-tagged DIDO1, arrays performed twice, total replicate number n = 4",0.6133
